Literature values as cited in patent US20260373165A1, “PHARMACEUTICAL COMBINATIONS AND COMPOSITIONS, AND METHODS OF USE THEREOF” (SHENZHEN HIGHTIDE BIOPHARMACEUTICAL LTD., priority 2022, published 2026).

Conditions: after 52 weeks of treatment, lower dose of semaglutide; cited from earlier work

For Cc1ccc([C@@H]2O[C@H](CO)[C@@H](O)[C@H](O)[C@H]2O)cc1Cc1ccc(-c2ccc(F)cc2)s1 [cangliflozin, canagliflozin], the “average decrease in total fat mass” value is listed as 7.8% and the “average decrease in total muscle mass” value is listed as 2.9%.
